In the NIST ThermoML archive (doi:10.1021/acs.jced.8b00163):
Several values for one entry are separate records, joined by “and”; a condition that tells them apart may be missing. Identical values can stand only once. Numbers after ± are expanded uncertainties.

Settings: for mass density: 100 kPa, Vibrating tube method; for mass density / viscosity: Liquid; for surface tension liquid-gas / viscosity: Surface laser light scattering (SLLS)

Structure (SMILES)	mass density (283.15 K) [kg/m3]	mass density (288.15 K) [kg/m3]	mass density (293.15 K) [kg/m3]	surface tension liquid-gas (298.15 K) [mN/m]	mass density (298.15 K)	viscosity (298.15 K) [mPa·s]	mass density (303.15 K) [kg/m3]	mass density (308.15 K) [kg/m3]	mass density (313.15 K) [kg/m3]	mass density (318.15 K) [kg/m3]	surface tension liquid-gas (323.15 K) [mN/m]	mass density (323.15 K)	viscosity (323.15 K) [mPa·s]	mass density (328.15 K) [kg/m3]	mass density (333.15 K) [kg/m3]	mass density (338.15 K) [kg/m3]	mass density (343.15 K) [kg/m3]	surface tension liquid-gas (348.15 K) [mN/m]	mass density (348.15 K)	viscosity (348.15 K) [mPa·s]	other results
CCCCCCCC(C)C [2-methylnonane]	735.134 ± 0.9	731.326 ± 0.9	727.469 ± 0.89	21.45 ± 0.3	723.54 ± 2.2 kg/m3 and 723.632 ± 0.89 kg/m3	0.8268 ± 0.028	719.96 ± 0.88	716.109 ± 0.88	712.275 ± 0.87	708.49 ± 0.87	19.65 ± 0.21	704.14 ± 2.2 kg/m3 and 704.628 ± 0.86 kg/m3	0.6035 ± 0.023	700.722 ± 0.86	696.794 ± 0.85	692.852 ± 0.85	688.883 ± 0.84	17.76 ± 0.19	684.896 ± 0.84 kg/m3 and 684.45 ± 2.1 kg/m3	0.4629 ± 0.019	mass density (353.15 K): 680.89 ± 0.83 kg/m3; mass density (358.15 K): 676.827 ± 0.83 kg/m3; mass density (363.15 K): 672.811 ± 0.83 kg/m3; surface tension liquid-gas (373.15 K): 15.75 ± 0.19 mN/m; mass density (373.15 K): 664.34 ± 2 kg/m3; viscosity (373.15 K): 0.3623 ± 0.017 mPa·s; surface tension liquid-gas (398.15 K): 13.64 ± 0.19 mN/m; mass density (398.15 K): 643.46 ± 2 kg/m3; viscosity (398.15 K): 0.2897 ± 0.015 mPa·s; surface tension liquid-gas (423.15 K): 11.72 ± 0.21 mN/m; mass density (423.15 K): 621.59 ± 1.9 kg/m3; viscosity (423.15 K): 0.2365 ± 0.013 mPa·s; surface tension liquid-gas (448.15 K): 9.9 ± 0.17 mN/m; viscosity (448.15 K): 0.1989 ± 0.013 mPa·s
CCCCCC(C)CCC (stereo not drawn) [4-methylnonane]	739.362 ± 0.91	735.555 ± 0.9	731.743 ± 0.9	21.67 ± 0.28	728.35 ± 2.2 kg/m3 and 727.929 ± 0.89 kg/m3	0.7638 ± 0.027	724.098 ± 0.89	720.253 ± 0.88	716.396 ± 0.88	712.527 ± 0.87	20.06 ± 0.26	708.82 ± 2.2 kg/m3 and 708.634 ± 0.87 kg/m3	0.5533 ± 0.021	704.729 ± 0.86	700.808 ± 0.86	696.873 ± 0.85	692.918 ± 0.85	17.93 ± 0.19	688.94 ± 0.84 kg/m3 and 689 ± 2.1 kg/m3	0.4161 ± 0.018	mass density (353.15 K): 684.943 ± 0.84 kg/m3; mass density (358.15 K): 680.922 ± 0.83 kg/m3; mass density (363.15 K): 676.877 ± 0.83 kg/m3; surface tension liquid-gas (373.15 K): 15.92 ± 0.2 mN/m; mass density (373.15 K): 668.81 ± 2.1 kg/m3; viscosity (373.15 K): 0.3279 ± 0.016 mPa·s; surface tension liquid-gas (398.15 K): 13.77 ± 0.27 mN/m; mass density (398.15 K): 647.86 ± 2 kg/m3; viscosity (398.15 K): 0.2644 ± 0.014 mPa·s; surface tension liquid-gas (423.15 K): 11.89 ± 0.13 mN/m; mass density (423.15 K): 626 ± 1.9 kg/m3; viscosity (423.15 K): 0.2168 ± 0.013 mPa·s; surface tension liquid-gas (448.15 K): 9.95 ± 0.14 mN/m; viscosity (448.15 K): 0.1801 ± 0.012 mPa·s
